Peptide text beside a SMILES is read from it. * marks the point of attachment. Octanoyl = CCCCCCCC(=O)*; Octyl = CCCCCCCC*
What follows are molecules tested against T1, rat GHS-receptor (GHR-R) (Rattus norvegicus, UniProt O08725) (assay: Ca-releasing activity (increase in intracellular calcium) in CHO-GHSR62 cells, FLIPR). Details: not given.
T1 construct: A full-length cDNA for rat GHR-R was obtained by RT-PCR; expressed in transfected cells
Type: cell-based
Excerpt: To assay an increase in the intracellular calcium ion concentration (Ca-releasing activity) occurring upon binding of a GH secretagogue (GHS) to GHS-receptor (GHR-R), a cell strain expressing rat GHR-R was created in the following manner. A full-length cDNA for rat GHR-R was obtained by RT-PCR (reverse transcriptase-polymerase chain reaction) where a cDNA derived from rat brain was used as template. From the nucleotide sequence of known rat GHR-R [K. K. Mckee, et al, Molecular Endocrinology 11, 415-423 (1997)], sense and antisense primers consisting of the following nucleotide sequences were synthesized.
The amplified cDNA was ligated to vector pcDNAIII (Invitrogen) to construct expression vector GHSR-pcDNAIII. CHO cells were transformed via the expression vector, and the transformed cells stably expressing GHR-R were selected in a medium containing 1 μg/ml G418. […] A change in the intracellular calcium ion concentration (Ca-releasing activity) was measured by an FLIPR system (Molecular Device). Before this measurement, 4×10^4 CHO-GHSR62 cells were put to a 96-well microplate with black wall (Corning Co., Ltd) and cultured for 12 to 15 hours. Then, the cells were incubated with 4 μM fluorescent Fluo4 (Molecular Probe Co., Ltd) for 1 hour and washed four times with Hank's BSS (Hank's Balanced Salt Solution) containing 20 mM Hepes ([N-2-hydroxyethyl]-piperazine-N-[2-ethanesulfonic acid]) and 2.5 mM probenecid, and the Ca-releasing activity was assayed by adding a sample and measuring a change in the fluorescence.
Peptide fragments obtained by partially digested the rat- and human-derived ghrelins by various proteases, or chemically synthesized peptides, were examined for their Ca releasing activity in order to determine a core amino acid sequence and the optimum chain length of a modifying fatty acid necessary for Ca-releasing activity.
The Ca-increasing activities of the ghrelin derivative peptide-type compounds synthesized in Example 10 and the natural ghrelin peptide were measured in the same manner as in Example 1.
In this examination, the intracellular Ca-releasing activity in CHO cells expressing rat GSH receptor was used as the indicator.

T1 sequence (O08725 whole entry): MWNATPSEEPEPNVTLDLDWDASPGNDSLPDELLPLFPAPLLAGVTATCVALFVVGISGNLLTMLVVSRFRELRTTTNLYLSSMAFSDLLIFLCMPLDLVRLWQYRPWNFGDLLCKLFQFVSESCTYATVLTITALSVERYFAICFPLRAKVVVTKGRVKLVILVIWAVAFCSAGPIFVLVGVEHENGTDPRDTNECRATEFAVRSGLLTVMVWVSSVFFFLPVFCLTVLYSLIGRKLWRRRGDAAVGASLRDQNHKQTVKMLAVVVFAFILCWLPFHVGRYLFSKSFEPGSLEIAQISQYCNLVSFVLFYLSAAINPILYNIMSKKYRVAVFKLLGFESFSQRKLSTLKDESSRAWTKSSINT

Row | Ca-releasing activity relative to ghrelin(1-4) amide | Ca-releasing activity relative to ghrelin (1-4) before addition of lysine | Molecule
1 | about 26 times | – | CCCCCCCC(=O)OC[C@H](NC(=O)[C@H](CO)NC(=O)CN)C(=O)N[C@@H](Cc1ccccc1)C(=O)N[C@@H](CC(C)C)C(N)=O [Compound 32, Ghrelin (1-5)-amide] (H-GSS(Octanoyl)FL-NH2)
2 | – | about 50 times | CCCCCCCC(=O)OC[C@H](NC(=O)[C@H](CO)NC(=O)CN)C(=O)N[C@@H](Cc1ccccc1)C(=O)N[C@@H](CCCCN)C(N)=O [Compound 38, [Lys^5]-Ghrelin (1-5)-amide] (H-GSS(Octanoyl)FK-NH2)

Same assay, conditions: CHO-GHSR62 cells

Row | Molecule | Ca-releasing activity (in words)
3 | GHRH: GH releasing hormone, expressed as GRF in FIG. 3a [reference compound] | did not exhibit the Ca-releasing activity
4 | CCCCCCCC(=O)O [n-octanoic acid, reference compound] | did not show a significant Ca-releasing activity

Same assay, conditions: CHO-GHSR62 cells (CHO cells expressing rat GHS receptor), FLIPR; read-out: Ca-releasing activity EC50

Row | EC50 | Molecule
5 | 12 nM | CCCCCCCCOC[C@H](NC(=O)CCCCN)C(=O)N[C@@H](Cc1ccccc1)C(=O)N[C@@H](CC(C)C)C(=O)NC [Compound 82, [N-Aminopentanoyl, Ser^3(Octyl)]-Ghrelin (3-5)-methylamide]
6 | 5.1 nM | CCCCCCCOC(=O)C[C@H](NC(=O)[C@H](CO)NC(=O)CN)C(=O)N[C@@H](Cc1ccccc1)C(=O)N[C@@H](CC(C)C)C(=O)N[C@@H](CO)C(=O)N1CCC[C@H]1C(=O)N[C@@H](CCC(=O)O)C(=O)N[C@@H](Cc1c[nH]cn1)C(=O)N[C@@H](CCC(N)=O)C(=O)N[C@@H](CCCNC(=N)N)C(=O)N[C@H](C(=O)N[C@@H](CCC(N)=O)C(=O)N[C@@H](CCC(N)=O)C(=O)N[C@@H](CCCNC(=N)N)C(=O)N[C@@H](CCCCN)C(=O)N[C@@H](CCC(=O)O)C(=O)N[C@@H](CO)C(=O)N[C@@H](CCCCN)C(=O)N[C@@H](CCCCN)C(=O)N1CCC[C@H]1C(=O)N1CCC[C@H]1C(=O)N[C@@H](C)C(=O)N[C@@H](CCCCN)C(=O)N[C@@H](CC(C)C)C(=O)N[C@@H](CCC(N)=O)C(=O)N1CCC[C@H]1C(=O)N[C@@H](CCCNC(=N)N)C(=O)O)C(C)C [Compound 54, [Asp^3(O-Heptyl)]-hGhrelin]
7 | 2800 nM | CCCC[C@H](NC(=O)[C@H](CO)NC(=O)CN)C(=O)N[C@@H](Cc1ccccc1)C(=O)N[C@@H](CC(C)C)C(=O)N[C@@H](CO)C(=O)N1CCC[C@H]1C(=O)N[C@@H](CCC(=O)O)C(=O)N[C@@H](Cc1c[nH]cn1)C(=O)N[C@@H](CCC(N)=O)C(=O)N[C@@H](CCCNC(=N)N)C(=O)N[C@H](C(=O)N[C@@H](CCC(N)=O)C(=O)N[C@@H](CCC(N)=O)C(=O)N[C@@H](CCCNC(=N)N)C(=O)N[C@@H](CCCCN)C(=O)N[C@@H](CCC(=O)O)C(=O)N[C@@H](CO)C(=O)N[C@@H](CCCCN)C(=O)N[C@@H](CCCCN)C(=O)N1CCC[C@H]1C(=O)N1CCC[C@H]1C(=O)N[C@@H](C)C(=O)N[C@@H](CCCCN)C(=O)N[C@@H](CC(C)C)C(=O)N[C@@H](CCC(N)=O)C(=O)N1CCC[C@H]1C(=O)N[C@@H](CCCNC(=N)N)C(=O)O)C(C)C [Compound 73, [Nle^3]-hGhrelin]
8 | 1600 nM | CCCCCCCCOC[C@@H](NC(=O)CCCCN)C(=O)N[C@H](Cc1ccccc1)C(=O)N[C@@H](CCCCN)C(N)=O [Compound 77, [N-Aminopentanoyl, ^DSer^3(Octyl), ^DPhe^4, Lys^5]-Ghrelin (3-5)-amide]
9 | 6.2 nM | CCCCCCCC(=O)OC[C@H](NC(=O)[C@H](CO)NC(=O)CN)C(=O)N[C@@H](Cc1ccccc1)C(=O)N[C@@H](CC(C)C)C(N)=O [Compound 32, Ghrelin (1-5)-amide] (H-GSS(Octanoyl)FL-NH2)
10 | 13 nM | CCCCCCCC(=O)OC[C@H](NC(=O)[C@H](CO)NC(=O)CN)C(=O)N[C@@H](Cc1ccccc1)C(=O)N[C@@H](CC(C)C)C(=O)N[C@@H](CO)C(=O)N1CCC[C@H]1C(=O)N[C@@H](CCC(=O)O)C(N)=O [Compound 28, Ghrelin (1-8)-amide]
11 | 10 nM | CCCCCCCC(=O)OC[C@H](NC(=O)[C@H](CO)NC(=O)CN)C(=O)N[C@@H](Cc1ccccc1)C(=O)N[C@@H](CCCCN)C(N)=O [Compound 38, [Lys^5]-Ghrelin (1-5)-amide] (H-GSS(Octanoyl)FK-NH2)
12 | 7.6 nM | CC(C)C[C@H](NC(=O)[C@H](CCCCN)NC(=O)[C@H](C)NC(=O)[C@@H]1CCCN1C(=O)[C@@H]1CCCN1C(=O)[C@H](CCCCN)NC(=O)[C@H](CCCCN)NC(=O)[C@H](CO)NC(=O)[C@H](CCC(=O)O)NC(=O)[C@H](CCCCN)NC(=O)[C@H](CCCNC(=N)N)NC(=O)[C@H](CCC(N)=O)NC(=O)[C@H](CCC(N)=O)NC(=O)[C@@H](NC(=O)[C@H](CCCNC(=N)N)NC(=O)[C@H](CCC(N)=O)NC(=O)[C@H](Cc1c[nH]cn1)NC(=O)[C@H](CCC(=O)O)NC(=O)[C@@H]1CCCN1C(=O)[C@H](CO)NC(=O)[C@H](CC(C)C)NC(=O)[C@H](Cc1ccccc1)NC(=O)[C@H](COCc1ccccc1)NC(=O)[C@H](CO)NC(=O)CN)C(C)C)C(=O)N[C@@H](CCC(N)=O)C(=O)N1CCC[C@H]1C(=O)N[C@@H](CCCNC(=N)N)C(=O)O [Compound 67, [Ser^3(Bzl)]-hGhrelin]
13 | > 10000 nM | CCCCCCCC(=O)OC[C@H](NC(=O)[C@H](CO)NC(=O)CN)C(N)=O [Compound 34, Ghrelin (1-3)-amide] (H-Gly-Ser-Ser(Octanoyl)-NH2)
14 | 11 nM | CCCCCCCCOC[C@H](NC(=O)CCCCN)C(=O)N[C@@H](Cc1ccccc1)C(=O)N[C@@H](CC(C)C)C(N)=O [Compound 81, [N-Aminopentanoyl, Ser^3(Octyl)]-Ghrelin (3-5)-amide]
15 | 380 nM | CCCCCCCC(=O)OC[C@H](NC(=O)CN)C(=O)N[C@@H](Cc1ccccc1)C(=O)N[C@@H](CC(C)C)C(=O)N[C@@H](CO)C(=O)N1CCC[C@H]1C(N)=O [Compound 43, [N-Glycyl]-Ghrelin (3-7)-amide] (H-GS(Octanoyl)FLSP-NH2)
16 | 11 nM | CCCCCCCC(=O)OC[C@H](NC(=O)[C@H](CO)NC(=O)CN)C(=O)N[C@@H](Cc1ccccc1)C(=O)N[C@@H](CC(C)C)C(=O)N[C@@H](CO)C(=O)N[C@@H](CCCCN)C(N)=O [Compound 75, [Lys^7]-Ghrelin (1-7)-amide] (H-GSS(Octanoyl)FLSK-NH2)
17 | 7.4 nM | CCCCCCCCSC[C@H](NC(=O)[C@H](CO)NC(=O)CN)C(=O)N[C@@H](Cc1ccccc1)C(=O)N[C@@H](CC(C)C)C(=O)N[C@@H](CO)C(=O)N1CCC[C@H]1C(N)=O [Compound 48, [Cys^3(Octyl)]-Ghrelin (1-7)-amide] (H-GSC(Octyl)FLSP-NH2)

Same assay, conditions: Ca-releasing activity (EC50, nM), Table 3, Example 9: protease fragments or synthetic peptides; CHO-GHSR62 cells

Row | Molecule | EC50
18 | CCCCCCCC(=O)OC[C@H](NC(=O)[C@H](CO)NC(=O)CN)C(=O)N[C@@H](Cc1ccccc1)C(=O)N[C@@H](CC(C)C)C(=O)N[C@@H](CO)C(=O)N1CCC[C@H]1C(=O)N[C@@H](CCC(=O)O)C(=O)N[C@@H](Cc1cnc[nH]1)C(=O)N[C@@H](CCC(N)=O)C(=O)N[C@@H](CCCNC(=N)N)C(=O)N[C@H](C(=O)N[C@@H](CCC(N)=O)C(=O)N[C@@H](CCC(N)=O)C(=O)N[C@@H](CCCNC(=N)N)C(=O)N[C@@H](CCCCN)C(=O)N[C@@H](CCC(=O)O)C(=O)N[C@@H](CO)C(=O)N[C@@H](CCCCN)C(=O)N[C@@H](CCCCN)C(=O)N1CCC[C@H]1C(=O)N1CCC[C@H]1C(=O)N[C@@H](C)C(=O)N[C@@H](CCCCN)C(=O)N[C@@H](CC(C)C)C(=O)N[C@@H](CCC(N)=O)C(=O)N1CCC[C@H]1C(=O)N[C@@H](CCCNC(=N)N)C(=O)O)C(C)C [Compound 1, human Ghrelin] | 2.6 nM

Same assay, conditions: Ca-releasing activity EC50, CHO-GHSR62 cells (CHO cells expressing rat GHS receptor), FLIPR

Row | Molecule | EC50
19 | CC(C)C[C@H](NC(=O)[C@H](CCCCN)NC(=O)[C@H](C)NC(=O)[C@@H]1CCCN1C(=O)[C@@H]1CCCN1C(=O)[C@H](CCCCN)NC(=O)[C@H](CCCCN)NC(=O)[C@H](CO)NC(=O)[C@H](CCC(=O)O)NC(=O)[C@H](CCCCN)NC(=O)[C@H](CCCNC(=N)N)NC(=O)[C@H](CCC(N)=O)NC(=O)[C@H](CCC(N)=O)NC(=O)[C@@H](NC(=O)[C@H](CCCNC(=N)N)NC(=O)[C@H](CCC(N)=O)NC(=O)[C@H](Cc1c[nH]cn1)NC(=O)[C@H](CCC(=O)O)NC(=O)[C@@H]1CCCN1C(=O)[C@H](CO)NC(=O)[C@H](CC(C)C)NC(=O)[C@H](Cc1ccccc1)NC(=O)[C@H](CSC(c1ccccc1)(c1ccccc1)c1ccccc1)NC(=O)[C@H](CO)NC(=O)CN)C(C)C)C(=O)N[C@@H](CCC(N)=O)C(=O)N1CCC[C@H]1C(=O)N[C@@H](CCCNC(=N)N)C(=O)O [Compound 68, [Cys^3(Trityl)]-hGhrelin] | 20 nM
20 | CCCCCCCC(=O)OC[C@H](NC(=O)[C@H](CO)NC(=O)CN)C(=O)N[C@@H](Cc1ccccc1)C(=O)N[C@@H](CC(C)C)C(=O)N[C@@H](CO)C(=O)N1CCC[C@H]1C(=O)N[C@@H](CCC(=O)O)C(=O)N[C@@H](Cc1cnc[nH]1)C(=O)N[C@@H](CCC(N)=O)C(=O)N[C@@H](CCCNC(=N)N)C(=O)N[C@H](C(=O)N[C@@H](CCC(N)=O)C(=O)N[C@@H](CCC(N)=O)C(=O)N[C@@H](CCCNC(=N)N)C(=O)N[C@@H](CCCCN)C(=O)N[C@@H](CCC(=O)O)C(=O)N[C@@H](CO)C(=O)N[C@@H](CCCCN)C(=O)N[C@@H](CCCCN)C(=O)N1CCC[C@H]1C(=O)N1CCC[C@H]1C(=O)N[C@@H](C)C(=O)N[C@@H](CCCCN)C(=O)N[C@@H](CC(C)C)C(=O)N[C@@H](CCC(N)=O)C(=O)N1CCC[C@H]1C(=O)N[C@@H](CCCNC(=N)N)C(=O)O)C(C)C [Compound 1, human Ghrelin] | 1.3 nM

Same assay, conditions: octanoyl moved from 3rd to 2nd serine

Row | Ca-releasing activity relative to the 3rd-serine octanoyl parent | Molecule
21 | about 1/200 | CCCCCCCC(=O)OC[C@H](NC(=O)CN)C(=O)N[C@@H](CO)C(=O)N[C@@H](Cc1ccccc1)C(=O)N[C@@H](CC(C)C)C(=O)N[C@@H](CO)C(=O)N1CCC[C@H]1C(=O)N[C@@H](CCC(=O)O)C(=O)N[C@@H](Cc1c[nH]cn1)C(N)=O [Compound 4, [Ser^2(Octanoyl), Ser^3]-Ghrelin (1-9)-amide] (H-GS(Octanoyl)SFLSPEH-NH2)
